These results are taken from patent publication US10442779B2, “Compositions and methods for treating Friedreich's ataxia” (Fratagene Therapeutics S.R.L., priority 2014, dated 2019).

In data set [1] the target is T1, frataxin^1-210 in HEK-293 Flp-In cells (293-frataxin) (Homo sapiens, UniProt Q16595).
T1 construct: 293 Flp-In cells stably expressing frataxin^1-210 were treated for 24 hrs; expressed in transfected cells
T1 sequence (Q16595 42-210): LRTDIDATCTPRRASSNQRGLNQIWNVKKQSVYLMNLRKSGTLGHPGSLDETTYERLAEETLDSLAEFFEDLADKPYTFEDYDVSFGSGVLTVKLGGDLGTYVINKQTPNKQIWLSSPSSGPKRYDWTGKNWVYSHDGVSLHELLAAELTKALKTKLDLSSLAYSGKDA
The data set is described as follows: Frataxin precursor / mature frataxin accumulation in 293-frataxin cells (western blot). The settings on record: 10 μM; for frataxin precursor accumulation: 24 hrs, compared with UCM2 and MG132; for mature frataxin accumulation: 72 hrs (3 days). Format: cell-based. Here is the method:
(§1) Cell culture and transfections. Human embryonic kidney HEK-293 cells were cultured in Dulbecco's modified Eagle's medium (DMEM) supplemented with 10% fetal bovine serum (FBS). HEK-293 cells were transfected using Lipofectamine 2000 reagents (Invitrogen), according to the manufacturer's instructions. Cells were plated on 6 cm dishes and transfected with 8 μg of total DNA (4 μg of pIRES-frataxin and 4 μg of HA-Ub). The day after transfection, cells were treated for 24 h with 10 μM UCM together with 10 μM proteasome inhibitor MG132 and 50 ng/ml deubiquitinating enzyme (DUB) inhibitor Ub-aldehyde. HEK-293 Flp-In cells (Invitrogen) are HEK-293 variants allowing the stable and isogenic integration and expression of a transfected gene. The HEK-293 clones stably expressing frataxin^1-210 or frataxin^K147R were previously described (Condo et al., 2007; Rufini et al., 2011). FRDA 214 (GM16214) and FRDA 798 (GM16798) lymphoblasts, from clinically affected FRDA patients, as well as FRDA 215 (GM16215) and FRDA 241 (GM16241) lymphoblasts, from the correspondent heterozygous clinically unaffected sibling, were obtained from Coriell Cell Repositories (Camden, N.J., USA) and were cultured in RPMI supplemented with 15% FBS.
Immunoblotting. Total cell extracts were prepared in IP buffer (50 mM Tris-HCl, pH 7.5, 150 mM NaCl, 1% Nonidet P-40, 5 mM EDTA, 5 mM EGTA) supplemented with Complete protease inhibitor cocktail (Roche Diagnostics). For in vivo detection of ubiquitin conjugates, 10 μM MG132, 50 ng/ml Ub-aldehyde and 2 mM NEM were added to the lysis buffer. Protein extract (50 μg) was separated by 12% SDS-PAGE, blotted onto a nitrocellulose membrane and detected with specific antibodies. The immunoreactive bands were detected by ECL (GE Healthcare) and imaged with a ChemiDoc XRS system (Bio-Rad Laboratories). Densitometric analysis was performed using the ImageLab 4.1 Software (Bio-Rad Laboratories).
UCMs increase frataxin levels. To validate UCM activity, UCMs were tested their effect in human HEK-293 cells stably expressing single copy frataxin (293-frataxin). These cells allow the detection of all forms of frataxin, including the frataxin precursor. Compounds that were able to enhance frataxin precursor levels were synthesized, further chemically modified according to the docking model and tested again in 293-frataxin. Approximately 200 new candidate UCMs were tested in functional assays. Through this iterative process, new UCMs that promote frataxin precursor with surprising efficiency were identified.
293 Flp-In cells stably expressing frataxin^1-210 were treated for 24 hrs with 10 μM of the indicated UCM or 10 μM MG132 (MG). Total cell extracts were resolved on SDS-PAGE and analyzed with anti-frataxin antibody, or anti-tubulin, as a loading control. Pre: precursor; tub: tubulin.
293 Flp-In cells stably expressing frataxin^1-210 were treated for 72 hrs with 10 μM of the indicated UCM. Total cell extracts were resolved on SDS-PAGE and analyzed with anti-frataxin antibody, or anti-tubulin, as a loading control. Pre: precursor, int: intermediate, mat: mature; tub: tubulin.

The target in data set [2] is T2, Human recombinant frataxin precursor (aa 1-210) (Homo sapiens, UniProt Q16595).
T2 construct: Human recombinant frataxin precursor (aa 1-210) was expressed and purified; purchased GenScript Corp., N.J., USA
T2 sequence (Q16595 1-210): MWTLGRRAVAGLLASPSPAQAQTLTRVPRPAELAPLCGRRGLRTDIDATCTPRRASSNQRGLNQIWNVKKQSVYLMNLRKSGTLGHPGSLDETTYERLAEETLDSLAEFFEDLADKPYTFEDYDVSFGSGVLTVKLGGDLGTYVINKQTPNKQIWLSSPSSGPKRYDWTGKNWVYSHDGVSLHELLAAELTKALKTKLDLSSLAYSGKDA
The data set is described as follows: Steady-state Trp fluorescence binding of UCMs to recombinant frataxin precursor. The settings on record: for change of protein Trp fluorescence (ΔF/F0): 2 μM frataxin precursor, ligand 0.5 to 25 μM, 20° C; for half-saturation binding constant, L1/2: 2 μM native frataxin precursor, numbers only in FIG. 5. Here is the method: Steady-state fluorescence measurements. Human recombinant frataxin precursor (aa 1-210) was expressed and purified by GenScript Corp., N.J., USA. Steady-state fluorescence spectra were recorded at 20° C. using an ISS PC1 fluorometer (Iss Inc, Champain, Ill. Usa). The affinity of frataxin for the ligands studied in this paper was determined by monitoring the decrease in Trp fluorescence upon the addition of these molecules to solutions. The concentration of the protein was 2 μM while the concentration of the ligands varied from 0.5 to 25 μM. At the excitation wavelength of 280 nm, emission spectra were recorded between 290 and 440 nm, using a 4×4 mm path-length quartz fluorescence microcuvette (Hellma GmbH & Co., Müllheim/Baden, Germany). The spectra were corrected using an instrument correction curve obtained with standard fluorescent compounds such as N-acetyl tryptophanamide (NATA). All measurements were also corrected for the inner-filter effect. To simulate the absorption of ligand molecules at the excitation and the emission wavelengths, two cuvettes (2 mm optical length), containing a solution of ligands in buffer, were placed along the excitation and emission pathways. The fluorescence of NATA was thus measured varying the concentration of quencher and four correction curves (one for each ligand) were obtained.
Data were then plotted as fractional loss of Trp fluorescence (ΔF/F0) versus ligand concentration. Experimental data were analyzed by nonlinear regression through a hyperbolic binding isotherm, using the Kaleidagraph program (Synergy Software).
UCMs interact with frataxin. Ubiquitin-competing molecules were selected through structure-based virtual screening for their potential ability to interact with frataxin on its ubiquitination site. Since they are in fact able to prevent frataxin ubiquitination and to interfere with its K147-dependent degradation, confirmation of their ability to physically interact with frataxin was sought. Therefore, the interaction propensities of frataxin with these molecules were investigated by fluorescence spectroscopy through the analysis of the changes of the signal of the protein tryptophan residues in the presence of the different compounds.
The graphs represent the fractional loss of the protein fluorescence intensity (ΔF/F0), in the presence of different concentration of ligand, versus the ratio between ligand and frataxin. The interaction with UCM53 was also analyzed in the case of frataxin precursor previously denaturated in 3M guanidinium hydrochloride (lower right panel). The half-saturation binding constant, L1/2 (μM), of frataxin precursor with different UCM is indicated in each panel.

For another data set, the target named is T3, frataxin ubiquitination (Homo sapiens, UniProt Q16595).
T3 construct: 293 cells were transiently co-transfected with HA-Ub and frataxin^1-210; expressed in transfected cells; host or cells: HEK-293 cells, transient transfection (pIRES-frataxin plus HA-Ub)
T3 sequence (Q16595 42-210): T1 sequence (Q16595 42-210)
Description: In vivo (in-cell) frataxin ubiquitination assay in HEK-293 cells co-transfected with HA-Ub and frataxin. The settings on record: HEK-293, HA-Ub + frataxin^1-210, 10 μM UCM, with MG132 and Ub-aldehyde. It counts as cell-based. Here is the method:
Cell culture and transfections. Human embryonic kidney HEK-293 cells were cultured in Dulbecco's modified Eagle's medium (DMEM) supplemented with 10% fetal bovine serum (FBS). HEK-293 cells were transfected using Lipofectamine 2000 reagents (Invitrogen), according to the manufacturer's instructions. Cells were plated on 6 cm dishes and transfected with 8 μg of total DNA (4 μg of pIRES-frataxin and 4 μg of HA-Ub). The day after transfection, cells were treated for 24 h with 10 μM UCM together with 10 μM proteasome inhibitor MG132 and 50 ng/ml deubiquitinating enzyme (DUB) inhibitor Ub-aldehyde. […]
Immunoblotting. […] Protein extract (50 μg) was separated by 12% SDS-PAGE, blotted onto a nitrocellulose membrane and detected with specific antibodies. The immunoreactive bands were detected by ECL (GE Healthcare) and imaged with a ChemiDoc XRS system (Bio-Rad Laboratories). […]
UCMs prevent frataxin ubiquitination. To test whether the new compounds promote frataxin accumulation by preventing its ubiquitin/proteasome-dependent degradation, their impact on frataxin ubiquitination was evaluated. […] The ubiquitination status of frataxin was evaluated by SDS-PAGE of total cell lysates and anti-frataxin immunoblotting. […] Ubiquitination level was measured as the ratio between the levels of ubiquitinated frataxin and frataxin precursor. […]

For data set [3], the target named is T4, frataxin in FRDA 798 and FRDA 214 lymphoblasts (Homo sapiens, UniProt Q16595).
T4 construct: GM16798; host or cells: FRDA 798, FRDA 214 and FRDA 203 patient-derived lymphoblasts
T4 sequence (Q16595 42-210): T1 sequence (Q16595 42-210)
Description: Frataxin accumulation in FRDA patient-derived lymphoblasts FRDA 798 and FRDA 214 (western blot). Format: cell-based. The conditions noted are these: for mature frataxin accumulation in FRDA patient cells: FRDA 798 and FRDA 214 lymphoblasts, 10 μM, 5 days, vs vehicle. Here is the method: as §1
Immunoblotting. Total cell extracts were prepared in IP buffer (50 mM Tris-HCl, pH 7.5, 150 mM NaCl, 1% Nonidet P-40, 5 mM EDTA, 5 mM EGTA) supplemented with Complete protease inhibitor cocktail (Roche Diagnostics). […] Protein extract (50 μg) was separated by 12% SDS-PAGE, blotted onto a nitrocellulose membrane and detected with specific antibodies. The immunoreactive bands were detected by ECL (GE Healthcare) and imaged with a ChemiDoc XRS system (Bio-Rad Laboratories). […]
UCM compounds promote frataxin accumulation in FRDA cells and rescue the aconitase defect. […] Frataxin levels were quantitated by western blot analysis on whole cell extracts using anti-frataxin antibody, or anti-tubulin, as a loading control. The relative frataxin abundance was quantitated by densitometric analysis and normalized with tubulin levels. […]

The subject of data set [4] is aconitases activity in FRDA 214 lymphoblasts. The data set is described as follows: Aconitase activity rescue in FRDA lymphoblasts. Format: cell-based, human. The settings on record: 5 days treatment. Here is the method:
Enzyme assays. For determinations of aconitases and citrate synthase activity, FRDA lymphoblasts were washed twice with ice-cold Dulbecco's Phosphate Buffered Saline (DPBS) and lysed in CelLytic M buffer (Sigma-Aldrich) supplemented with Complete protease inhibitor cocktail EDTA-free (Roche) and 2 mM trisodium citrate. Citrate was included to prevent the inactivation of iron-sulfur cluster of aconitases. Total aconitase activity was measured spectrophotometrically at 340 nm using the BIOXYTECH Aconitase-340™ Assay (OxisResearch™ 21041). The assay reactions, containing 150 μg of cell extract, were performed following the supplier's procedure, with the exception of temperature incubation at 25° C. Citrate synthase activity was assessed using 15 μg of cell extract with the Citrate Synthase Assay Kit (Sigma-Aldrich CS0720).
The aconitase activities were normalized with respect to citrate synthase ratios; one milliunit of enzyme was defined as the amount of protein that converted 1 nmol of NADP^+ in 1 min at 25° C.
Moreover, to validate a functional recovery of frataxin levels, rescue of cellular aconitases activity was evaluated in FRDA cells upon treatment with UCMs. […] Aconitases activity in cells derived from an unaffected carrier sibling (FRDA 215) is also shown for comparison.

Data set [5] addresses T5, frataxin in FRDA 203 lymphoblast cell line (Homo sapiens, UniProt Q16595).
T5 construct: GM16798; host or cells: FRDA 798, FRDA 214 and FRDA 203 patient-derived lymphoblasts
T5 sequence (Q16595 42-210): T1 sequence (Q16595 42-210)
Description: Frataxin accumulation in FRDA 203 patient-derived lymphoblasts (western blot). The settings on record: FRDA 203 lymphoblasts, 1 μM, 4 days, vs DMSO; five experiments, P<0.05. It counts as cell-based. Here is the method:
The efficacy of a specific compound, UCM166, was tested in FRDA patients-derived cells. (The structure of UCM166 is as shown previously.) FRDA patient-derived lymphoblast cell line FRDA 203 was cultured in the presence of 1 μM of UCM166 or DMSO alone (as a control) for 4 days. Total cell extracts were resolved on SDS-PAGE and analyzed in a western blot with anti-frataxin antibody, or anti-tubulin, as a loading control. FIG. 7 represents the relative frataxin abundance as quantified by densitometric analysis and normalized with tubulin levels. The data represent the mean±S.E.M. from five different independent experiments. P-value was calculated with Student's t-test and was statistically significant (**P<0.05) compared to non-treated conditions.

For the compound `C/C(=N\NC(=O)c1ccc(C)cc1C)c1ccc2c(c1)Nc1ccccc1S2` [UCM53], in data set [1], the frataxin precursor accumulation result was “induce frataxin precursor accumulation” and the mature frataxin accumulation result is reported as “accumulation of mature frataxin”. In data set [2], the “change of protein Trp fluorescence (ΔF/F0)” value is “strong fluorescence changes” and the “half-saturation binding constant, L1/2” value is listed as “lowest binding affinity constants”. For the same compound, in data set [2] (frataxin precursor denaturated in 3M guanidinium hydrochloride), the “fluorescence changes with denatured protein” value is “completely lost”. Further, the “frataxin ubiquitination (ratio of ubiquitinated frataxin to frataxin precursor)” value on frataxin ubiquitination is given as “significantly abrogate frataxin ubiquitination”. For the same compound, the “mature frataxin accumulation in FRDA patient cells” value in data set [3] is “significant accumulation of mature frataxin”.
For `C/C(=N\NC(=O)c1cc2ccccc2cc1O)c1ccc2c(c1)Nc1ccccc1S2` [UCM71], in data set [1], the frataxin precursor accumulation result is on record as “induce frataxin precursor accumulation” and the mature frataxin accumulation entry is “accumulation of mature frataxin”. Further, the “frataxin ubiquitination (ratio of ubiquitinated frataxin to frataxin precursor)” value on frataxin ubiquitination is listed as “significantly abrogate frataxin ubiquitination”. The “toxicity in long-term cell treatment” value in data set [3] (FRDA lymphoblasts, long-term (5 days) treatment) is reported as “toxicity over a long-term treatment”.
In the case of `C/C(=N\NC(=O)c1ccccc1)c1ccc2c(c1)Nc1ccccc1S2` [UCM108], the “aconitases activity (normalized to citrate synthase)” value in data set [4] was “significant increase in aconitases activity”. Further, in data set [1], the frataxin precursor accumulation result is listed as “induce frataxin precursor accumulation” and the mature frataxin accumulation result is “accumulation of mature frataxin”. In addition, in data set [2], the “change of protein Trp fluorescence (ΔF/F0)” value was “strong fluorescence changes” and the “half-saturation binding constant, L1/2” value is recorded as “lowest binding affinity constants”. In addition, in data set [3], the “mature frataxin accumulation in FRDA patient cells” value is recorded as “significant accumulation of mature frataxin”.
On to `COc1ccccc1C(=O)N/N=C(\C)c1ccc2c(c1)Nc1ccccc1S2` [UCM166], for which the “relative frataxin abundance (normalized with tubulin)” value in data set [5] was “efficiently promotes frataxin accumulation”.
